According to publication PMC12136037, “Type II kinase inhibitors that target Parkinson’s disease–associated LRRK2” (Science Advances, 2025):

Key:
Assay in all cases: DSF 100 kinase selectivity screen;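 further: compound tested at 20 µM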
Format in all cases: binding
[1] = target: T1, ~100 representative kinases (Homo sapiens, UniProt P16083); conditions: protein NQO2; average of three replicates
T1 construct: Recombinant protein kinase domains with a concentration of 2 μM
T1 sequence (P16083 1-231): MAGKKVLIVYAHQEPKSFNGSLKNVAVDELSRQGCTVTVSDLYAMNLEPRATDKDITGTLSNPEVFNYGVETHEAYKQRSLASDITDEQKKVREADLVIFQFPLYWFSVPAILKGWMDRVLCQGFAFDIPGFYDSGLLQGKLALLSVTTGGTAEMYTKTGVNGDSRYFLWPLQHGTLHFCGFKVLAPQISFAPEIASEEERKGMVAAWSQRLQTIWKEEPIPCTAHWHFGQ
Summary of the method: (§1)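 Each kinase domain, at 2 μM, is mixed with 20 μM test compound and SYPRO Orange in Hepes (20 mM, pH 7.5) with 500 mM NaCl. Temperature is then raised at 3°C/min and fluorescence-monitored unfolding yields the melting temperature change, ΔTm in degrees Celsius.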

[2] = target: T2, ~100 representative kinases (Homo sapiens, UniProt O96013); conditions: protein PAK4; average of three replicates
T2 construct: Recombinant protein kinase domains with a concentration of 2 μM
T2 sequence (O96013 whole entry, the tested form may be a part): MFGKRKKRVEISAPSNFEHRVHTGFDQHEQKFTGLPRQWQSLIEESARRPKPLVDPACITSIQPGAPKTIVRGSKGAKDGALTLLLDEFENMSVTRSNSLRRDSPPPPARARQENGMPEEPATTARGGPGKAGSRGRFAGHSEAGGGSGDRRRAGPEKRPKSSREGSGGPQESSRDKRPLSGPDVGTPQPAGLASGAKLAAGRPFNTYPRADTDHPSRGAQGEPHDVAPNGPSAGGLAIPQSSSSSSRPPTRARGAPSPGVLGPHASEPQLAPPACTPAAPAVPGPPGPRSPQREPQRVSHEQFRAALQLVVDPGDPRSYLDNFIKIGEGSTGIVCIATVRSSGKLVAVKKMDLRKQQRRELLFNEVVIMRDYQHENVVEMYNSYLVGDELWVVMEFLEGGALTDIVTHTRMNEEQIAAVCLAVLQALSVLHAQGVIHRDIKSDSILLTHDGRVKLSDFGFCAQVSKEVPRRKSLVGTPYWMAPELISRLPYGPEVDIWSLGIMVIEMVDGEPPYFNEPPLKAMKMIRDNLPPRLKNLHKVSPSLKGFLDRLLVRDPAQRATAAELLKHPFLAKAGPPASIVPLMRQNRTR
Summary of the method: as §1

[3] = target: T3, ~100 representative kinases (Homo sapiens, UniProt Q8TF76); conditions: protein GSG2; average of three replicates
T3 construct: Recombinant protein kinase domains with a concentration of 2 μM
T3 sequence (Q8TF76 1-798): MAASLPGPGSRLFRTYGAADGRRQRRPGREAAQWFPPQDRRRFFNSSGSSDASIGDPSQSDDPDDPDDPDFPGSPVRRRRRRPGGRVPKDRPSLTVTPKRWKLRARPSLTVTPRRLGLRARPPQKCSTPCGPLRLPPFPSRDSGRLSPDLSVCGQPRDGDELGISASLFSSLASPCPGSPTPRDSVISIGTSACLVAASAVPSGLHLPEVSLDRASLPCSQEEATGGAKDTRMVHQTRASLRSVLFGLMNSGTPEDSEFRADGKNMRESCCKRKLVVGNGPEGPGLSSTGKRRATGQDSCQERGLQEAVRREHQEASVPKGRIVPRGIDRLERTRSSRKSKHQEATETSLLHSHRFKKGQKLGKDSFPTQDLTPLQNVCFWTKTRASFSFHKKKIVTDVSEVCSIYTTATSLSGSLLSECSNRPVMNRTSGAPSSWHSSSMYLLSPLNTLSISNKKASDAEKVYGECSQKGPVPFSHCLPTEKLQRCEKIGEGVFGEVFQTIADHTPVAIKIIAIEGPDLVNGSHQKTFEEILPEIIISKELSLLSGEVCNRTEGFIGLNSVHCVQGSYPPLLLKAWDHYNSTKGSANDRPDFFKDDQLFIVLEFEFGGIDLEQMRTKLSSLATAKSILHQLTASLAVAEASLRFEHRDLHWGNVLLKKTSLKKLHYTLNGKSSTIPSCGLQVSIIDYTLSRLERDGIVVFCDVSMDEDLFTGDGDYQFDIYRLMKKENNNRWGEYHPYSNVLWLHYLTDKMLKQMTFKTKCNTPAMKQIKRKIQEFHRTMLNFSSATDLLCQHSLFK
Summary of the method: as §1

[4] = target: T4, ~100 representative kinases (Homo sapiens, UniProt Q6PHR2); conditions: Protein ULK3; DSF; average of three replicates
T4 construct: Recombinant protein kinase domains with a concentration of 2 μM
T4 sequence (Q6PHR2 1-472): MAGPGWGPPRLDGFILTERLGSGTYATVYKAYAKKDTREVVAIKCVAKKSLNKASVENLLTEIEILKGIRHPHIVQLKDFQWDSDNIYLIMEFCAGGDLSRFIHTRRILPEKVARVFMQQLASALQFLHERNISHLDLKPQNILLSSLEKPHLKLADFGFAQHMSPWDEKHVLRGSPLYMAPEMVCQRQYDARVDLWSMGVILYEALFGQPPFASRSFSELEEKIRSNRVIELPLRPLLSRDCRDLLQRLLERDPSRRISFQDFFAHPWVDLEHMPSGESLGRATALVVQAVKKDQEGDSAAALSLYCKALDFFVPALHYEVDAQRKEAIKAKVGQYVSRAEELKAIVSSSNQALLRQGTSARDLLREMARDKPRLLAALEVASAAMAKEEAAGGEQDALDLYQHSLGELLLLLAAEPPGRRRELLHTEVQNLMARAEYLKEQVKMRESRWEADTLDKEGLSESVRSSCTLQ
Summary of the method: as §1

[5] = target: T5, ~100 representative kinases (Homo sapiens, UniProt P45983); conditions: protein MAPK8; average of three replicates
T5 construct: Recombinant protein kinase domains with a concentration of 2 μM
T5 sequence (P45983 whole entry, the tested form may be a part): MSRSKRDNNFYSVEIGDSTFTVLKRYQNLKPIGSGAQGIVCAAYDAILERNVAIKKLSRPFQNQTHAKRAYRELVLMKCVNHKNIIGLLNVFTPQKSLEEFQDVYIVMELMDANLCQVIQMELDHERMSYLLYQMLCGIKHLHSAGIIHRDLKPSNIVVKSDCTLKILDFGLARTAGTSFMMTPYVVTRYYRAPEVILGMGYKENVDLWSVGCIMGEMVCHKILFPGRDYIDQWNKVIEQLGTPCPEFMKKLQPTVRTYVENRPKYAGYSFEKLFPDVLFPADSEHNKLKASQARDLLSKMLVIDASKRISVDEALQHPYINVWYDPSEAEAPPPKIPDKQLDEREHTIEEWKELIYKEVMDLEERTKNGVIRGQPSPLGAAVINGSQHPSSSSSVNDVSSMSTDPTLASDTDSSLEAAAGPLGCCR
Summary of the method: as §1

[6] = target: T6, ~100 representative kinases (Homo sapiens, UniProt P29317); conditions: Protein EPHA2; average of three replicates
T6 construct: Recombinant protein kinase domains with a concentration of 2 μM
T6 sequence (P29317 24-976): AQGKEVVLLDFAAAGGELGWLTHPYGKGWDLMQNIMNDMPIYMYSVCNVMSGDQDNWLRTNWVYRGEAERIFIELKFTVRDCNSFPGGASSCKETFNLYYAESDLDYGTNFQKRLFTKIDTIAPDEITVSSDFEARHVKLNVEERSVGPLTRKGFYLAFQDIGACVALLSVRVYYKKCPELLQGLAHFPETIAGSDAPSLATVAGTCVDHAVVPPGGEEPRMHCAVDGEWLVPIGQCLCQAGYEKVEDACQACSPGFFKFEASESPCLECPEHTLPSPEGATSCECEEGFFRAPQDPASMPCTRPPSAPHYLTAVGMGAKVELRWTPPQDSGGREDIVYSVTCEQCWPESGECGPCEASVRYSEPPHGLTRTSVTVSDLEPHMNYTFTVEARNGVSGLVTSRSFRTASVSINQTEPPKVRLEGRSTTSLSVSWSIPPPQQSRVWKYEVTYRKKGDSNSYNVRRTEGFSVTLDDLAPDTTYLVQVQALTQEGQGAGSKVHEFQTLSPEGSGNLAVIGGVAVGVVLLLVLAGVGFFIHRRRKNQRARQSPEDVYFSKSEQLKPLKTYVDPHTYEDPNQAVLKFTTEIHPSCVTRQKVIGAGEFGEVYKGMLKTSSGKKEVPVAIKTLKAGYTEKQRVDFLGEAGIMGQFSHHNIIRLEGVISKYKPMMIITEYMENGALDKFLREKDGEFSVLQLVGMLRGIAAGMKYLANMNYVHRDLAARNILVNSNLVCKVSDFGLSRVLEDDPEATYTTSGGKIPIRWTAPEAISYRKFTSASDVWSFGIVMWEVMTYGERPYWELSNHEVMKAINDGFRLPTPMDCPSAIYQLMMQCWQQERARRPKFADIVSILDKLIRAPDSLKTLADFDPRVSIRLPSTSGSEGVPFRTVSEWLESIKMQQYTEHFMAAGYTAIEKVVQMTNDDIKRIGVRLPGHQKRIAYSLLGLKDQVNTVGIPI
Summary of the method: as §1

[7] = target: T7, ~100 representative kinases (Homo sapiens, UniProt Q13627); conditions: Protein DYRK1A; average of three replicates
T7 construct: Recombinant protein kinase domains with a concentration of 2 μM
Summary of the method: as §1

[8] = target: T8, ~100 representative kinases (Homo sapiens, UniProt Q5VT25); conditions: Protein CDC42BPA; average of three replicates
T8 construct: Recombinant protein kinase domains with a concentration of 2 μM
T8 sequence (Q5VT25 whole entry, the tested form may be a part): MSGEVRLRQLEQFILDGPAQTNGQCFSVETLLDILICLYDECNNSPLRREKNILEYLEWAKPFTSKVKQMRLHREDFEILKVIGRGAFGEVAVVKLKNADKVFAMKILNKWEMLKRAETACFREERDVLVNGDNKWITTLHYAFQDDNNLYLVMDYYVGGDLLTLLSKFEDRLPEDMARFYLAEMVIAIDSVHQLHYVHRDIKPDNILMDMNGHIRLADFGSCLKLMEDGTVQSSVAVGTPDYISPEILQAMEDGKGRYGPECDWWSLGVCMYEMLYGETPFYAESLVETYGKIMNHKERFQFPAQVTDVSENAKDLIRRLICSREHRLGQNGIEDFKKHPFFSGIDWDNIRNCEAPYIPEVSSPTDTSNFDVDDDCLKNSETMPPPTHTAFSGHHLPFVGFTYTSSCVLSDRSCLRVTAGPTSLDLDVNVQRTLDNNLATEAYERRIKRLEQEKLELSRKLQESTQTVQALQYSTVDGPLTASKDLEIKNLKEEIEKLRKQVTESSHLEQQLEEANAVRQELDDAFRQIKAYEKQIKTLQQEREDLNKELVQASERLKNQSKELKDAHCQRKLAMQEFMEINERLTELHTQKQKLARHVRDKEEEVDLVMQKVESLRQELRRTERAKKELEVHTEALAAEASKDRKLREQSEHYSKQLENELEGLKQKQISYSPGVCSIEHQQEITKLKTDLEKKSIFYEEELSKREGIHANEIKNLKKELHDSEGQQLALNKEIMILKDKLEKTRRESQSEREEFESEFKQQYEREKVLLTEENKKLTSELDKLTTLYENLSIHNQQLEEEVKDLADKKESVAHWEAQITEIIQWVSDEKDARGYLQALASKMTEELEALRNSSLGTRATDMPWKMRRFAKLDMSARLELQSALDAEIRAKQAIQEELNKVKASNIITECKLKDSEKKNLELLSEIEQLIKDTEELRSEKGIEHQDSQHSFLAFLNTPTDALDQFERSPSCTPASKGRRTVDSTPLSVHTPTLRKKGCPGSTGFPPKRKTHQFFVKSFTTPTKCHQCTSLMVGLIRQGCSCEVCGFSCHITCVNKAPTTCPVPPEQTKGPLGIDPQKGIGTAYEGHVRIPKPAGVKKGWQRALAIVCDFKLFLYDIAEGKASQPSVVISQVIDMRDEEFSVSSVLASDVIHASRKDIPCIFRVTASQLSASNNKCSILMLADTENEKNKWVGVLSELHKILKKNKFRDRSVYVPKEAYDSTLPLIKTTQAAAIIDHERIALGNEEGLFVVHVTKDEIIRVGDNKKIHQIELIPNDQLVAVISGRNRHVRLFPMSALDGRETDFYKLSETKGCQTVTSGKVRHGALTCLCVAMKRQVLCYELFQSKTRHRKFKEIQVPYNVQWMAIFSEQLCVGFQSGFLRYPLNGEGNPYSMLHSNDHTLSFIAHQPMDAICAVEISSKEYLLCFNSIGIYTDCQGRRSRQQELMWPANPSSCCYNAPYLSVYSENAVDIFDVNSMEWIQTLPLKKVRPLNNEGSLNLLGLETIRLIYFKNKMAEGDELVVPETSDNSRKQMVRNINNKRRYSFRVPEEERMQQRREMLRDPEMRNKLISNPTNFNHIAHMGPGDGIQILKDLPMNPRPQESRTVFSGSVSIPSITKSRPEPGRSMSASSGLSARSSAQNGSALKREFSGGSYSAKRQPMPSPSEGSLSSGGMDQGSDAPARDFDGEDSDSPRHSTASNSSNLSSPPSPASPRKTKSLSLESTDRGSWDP
Summary of the method: as §1

[9] = target: T9, ~100 representative kinases (Homo sapiens, UniProt P49761); conditions: Protein CLK3; average of three replicates
T9 construct: Recombinant protein kinase domains with a concentration of 2 μM
T9 sequence (P49761 whole entry, the tested form may be a part): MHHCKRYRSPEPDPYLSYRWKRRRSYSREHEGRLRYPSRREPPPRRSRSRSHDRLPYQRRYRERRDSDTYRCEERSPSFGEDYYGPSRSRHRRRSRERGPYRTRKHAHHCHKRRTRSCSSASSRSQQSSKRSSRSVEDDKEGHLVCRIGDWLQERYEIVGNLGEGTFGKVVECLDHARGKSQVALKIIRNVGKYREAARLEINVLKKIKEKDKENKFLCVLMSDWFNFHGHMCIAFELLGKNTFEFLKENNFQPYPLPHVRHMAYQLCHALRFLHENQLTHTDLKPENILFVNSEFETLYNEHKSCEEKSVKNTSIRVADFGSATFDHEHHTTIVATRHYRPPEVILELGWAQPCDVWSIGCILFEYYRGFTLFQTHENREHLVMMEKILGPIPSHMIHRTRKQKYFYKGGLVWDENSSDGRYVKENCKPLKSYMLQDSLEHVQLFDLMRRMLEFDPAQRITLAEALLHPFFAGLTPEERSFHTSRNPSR
Summary of the method: as §1

| SMILES | dTm [1] [K] | dTm [2] [K] | dTm [3] [K] | dTm [4] [K] | dTm [5] [K] | dTm [6] [K] | dTm [7] [K] | dTm [8] [K] | dTm [9] [K] |
| --- | --- | --- | --- | --- | --- | --- | --- | --- | --- |
| O=C(Nc1ccc(Cl)cc1)C1(C(=O)Nc2cccc(-c3c[nH]c4ncnc(N5CCOCC5)c34)c2)CC1 [Compound 13] | 0.45 | 1.17 | 0.82 | 9.91 | 3.26 | 8.00 | 8.77 | -0.08 | 4.87 |
| COc1cc(C(=O)N2CCOCC2)c(F)cc1Nc1nc(N(C)C)c2c(Cl)c[nH]c2n1 [Compound 36] | -0.44 | -0.14 | -1.75 | 4.06 | 5.54 | -0.10 | 3.71 | -0.93 | 2.75 |
| COc1ccc(NC(=O)C2(C(=O)Nc3cccc(-c4c[nH]c5ncnc(N6CCOCC6)c45)c3)CC2)cc1 [Compound 16] | -0.51 | -0.80 | -0.39 | 5.26 | 0.26 | 1.72 | 0.49 | -1.10 | 0.51 |
| COc1cc(S(C)(=O)=O)ccc1Nc1nc(N(C)C)c2c(Cl)c[nH]c2n1 [Compound 37] | -0.63 | 0.22 | 0.32 | 1.01 | 3.54 | -0.56 | 2.45 | -0.18 | 1.12 |
| O=C(Nc1cccc(-c2c[nH]c3ncnc(N4CCOCC4)c23)c1)C1(C(=O)Nc2ccc(F)c(Br)c2F)CC1 [Compound 26] | -2.66 | 0.78 | -2.00 | 7.33 | 2.06 | 2.30 | 0.19 | -0.44 | 3.24 |
| O=C(Nc1cccc(-c2c[nH]c3ncnc(N4CCOCC4)c23)c1)C1(C(=O)Nc2ccc(F)c(F)c2)CC1 [Compound 17] | -0.41 | 0.06 | -3.87 | 7.52 | 2.52 | 4.47 | 4.77 | -0.72 | 3.44 |
| COc1cc(NC(=O)C2(C(=O)Nc3cccc(-c4c[nH]c5ncnc(N6CCOCC6)c45)c3)CC2)ccc1F [Compound 21] | -1.04 | -0.79 | -2.20 | 8.22 | 1.81 | 2.31 | 2.83 | -1.17 | 3.11 |
| Cc1ccc(C(=O)Nc2ccc(CN3CCN(C)CC3)c(C(F)(F)F)c2)cc1C#Cc1c[nH]c2ncnc(N3CCOCC3)c12 [Compound 1] | 0.13 | 0.31 | 0.98 | 9.22 | 2.18 | 3.44 | -1.40 | -1.51 | 4.76 |
| CNC(=O)c1cc(Oc2ccc(NC(=O)Nc3cc(C(C)(C)C)nn3-c3ccc4ncccc4c3)c(F)c2)ccn1 [Rebastinib, reference compound] | -1.54 | 4.23 | 0.28 | 3.80 | 1.99 | 10.76 | 0.55 | 0.18 | 8.68 |
| O=C(Nc1cccc(-c2c[nH]c3ncnc(N4CCOCC4)c23)c1)C1(C(=O)Nc2cc(Br)c(F)cc2F)CC1 [Compound 25] | -1.75 | 0.88 | -3.43 | 9.25 | 0.77 | 1.14 | 0.31 | -0.57 | 2.08 |
| O=C(Nc1cc(F)cc(Br)c1)C1(C(=O)Nc2cccc(-c3c[nH]c4ncnc(N5CCOCC5)c34)c2)CC1 [Compound 27] | -1.53 | 0.52 | -3.53 | 7.46 | 1.19 | 0.41 | -0.23 | 0.59 | 2.41 |

Second part, the compound after the results:

| dTm [1] [K] | dTm [2] [K] | dTm [3] [K] | dTm [4] [K] | dTm [5] [K] | dTm [6] [K] | dTm [7] [K] | dTm [8] [K] | dTm [9] [K] | SMILES |
| --- | --- | --- | --- | --- | --- | --- | --- | --- | --- |
| -0.56 | 0.12 | -0.43 | 7.39 | 1.17 | 6.37 | 4.73 | -0.78 | 3.15 | O=C(Nc1ccc(F)cc1)C1(C(=O)Nc2cccc(-c3c[nH]c4ncnc(N5CCOCC5)c34)c2)CC1 [Compound 2] |
| -2.19 | -0.47 | -2.81 | 7.53 | 2.35 | 3.46 | 0.41 | -1.23 | 0.69 | Cc1cc(F)ccc1NC(=O)C1(C(=O)Nc2cccc(-c3c[nH]c4ncnc(N5CCOCC5)c34)c2)CC1 [Compound 24] |
| 0.0657 | -0.0471 | -1.97 | 8.77 | 1.56 | 4.88 | 3.55 | -0.98 | 2.88 | CCc1ccc(NC(=O)C2(C(=O)Nc3cccc(-c4c[nH]c5ncnc(N6CCOCC6)c45)c3)CC2)cc1 [Compound 15] |
| -0.60 | 1.80 | -2.91 | 7.43 | 4.13 | 10.91 | 2.14 | -0.10 | 14.57 | Cc1ccc(-n2nc(C(C)(C)C)cc2NC(=O)Nc2cccc(-c3c[nH]c4ncnc(N5CCOCC5)c34)c2)cc1 [Compound 29] |
| -0.15 | -0.78 | -1.23 | 8.63 | 3.47 | 6.09 | 2.17 | -0.81 | 2.86 | O=C(Nc1cccc(-c2c[nH]c3ncnc(N4CCOCC4)c23)c1)c1cccn(-c2ccc(F)cc2)c1=O [Compound 4] |
| -1.08 | 0.76 | -2.85 | 11.44 | 3.75 | 3.30 | 0.19 | -0.53 | 4.17 | CC(C)(C)c1cccc(NC(=O)C2(C(=O)Nc3cccc(-c4c[nH]c5ncnc(N6CCOCC6)c45)c3)CC2)c1 [Compound 22] |
